Source: US7939540B2, “4-(3-benzoylaminophenyl)-6,7-dimethoxy-2-methylaminoquinazoline derivatives” (Eisai R&D Management Co., Ltd., priority 2006, dated 2011)
Read-outs that look alike come from different tables or passages of the source.

What was measured:
[1] = system: CYP1A1; conditions: human, hepatocytes
Method: (§1) Cryopreserved human hepatocytes (XenoTeck) were rapidly thawed at 37° C., and viable cells were obtained using Hepatocytes Isolation Kit (Nosan Corporation). After cells prepared were diluted with ice cold William's Medium E (10% FBS, +PSG) to give a concentration of 5×10^5 viable cells/mL, the cells were seeded onto a 48-well collagen-coated plate (BD Biosciences) at a concentration of 1×10^5 cells/cm^2 and cultured at 37° C. in 5% CO2 for 24 hours. Then, the medium was replaced with Hepato-STIM (registered trade mark: BD Biosciences) (+EGF, PSG, −FBS), and the cells were further cultured at 37° C. in 5% CO2 for 24 hours. […] The culture medium containing test compound, β-NF or Rif was replaced every 24 hours. Test compound, β-NF and Rif were each dissolved in dimethyl sulfoxide (DMSO: Wako Pure Chemical Industries, Ltd.), and culture medium containing test compound (final concentrations; 1, 3 and 10 μM), β-NF (final concentration; 10 μM) or Rif (final concentration; 10 μM) was prepared by adding them to Hepato-STIM(+EGF, PSG, −FBS), respectively. Final concentration of DMSO was set to be 0.1%, and culture medium containing 0.1% DMSO was used for control. After completion of the treatment, the cells were washed with PBS once, and total RNA was purified using Total RNA Purification Kit (Applied Biosystems). The purified total RNA was subjected to reverse transcription reaction using TaqMan Reverse Transcription Reagents (Applied Biosystems) to synthesize cDNA, where oligo dT was used as a primer. The reaction was carried out using Gene Amp PCR system 9700 at 25° C. for 10 minutes, followed by at 48° C. for 60 minutes. Then, reverse transcriptase was deactivated at 95° C. for 10 minutes. The levels of mRNA for CYP1A1 and GAPDH were quantified using SYBR Green PCR Core Reagents Kit (Applied Biosystems), and those for CYP1A2 and that of CYP3A4 were measured using Taqman PCR Core Reagents Kit (Applied Biosystems) and ABI Prism 7900 Sequence Detection System (Applied Biosystems).
(§2) * A cycle consisting of denaturation, annealing, and elongation reaction, was repeated 50 times.
(§3) The ability of a test compound to induce CYP1A1 was calculated as follows: Ability of a test compound to induce CYP1A1 (%)={[(amount of mRNA of CYP1A1 in test compound treated cells)/(amount of mRNA of GAPDH in test compound treated cells)]/[(amount of mRNA of CYP1A1 in control cells)/(amount of mRNA of GAPDH in control cells)]−1}/{[(amount of mRNA of CYP1A1 in positive control treated cells)/(amount of mRNA of GAPDH in positive control treated cells)]/[(amount of mRNA of CYP1A1 in control cells)/(amount of mRNA of GAPDH in control cells)]−1}×100

[2] = system: CYP3A4; experiment: Induction potency of drug metabolizing enzyme (CYP) using cryopreserved human hepatocytes, CYP3A4 mRNA; conditions: approximately 48 hours, mRNA normalised to GAPDH, positive control rifampicin 10 μM
Method: as §1, §2, §3

[3] = system: CYP1A2; conditions: human, hepatocytes
Method: as §1, §2, §3

[4] = system: CYPs; experiment: Induction potency on CYPs in cryopreserved human hepatocytes, overall statement; type: in vitro ADME; conditions: cryopreserved human hepatocytes, 1, 3 and 10 μM; result in words
Method: The ability to induce CYP1A2 or CYP3A4 was calculated in the same manner described above.

CNc1nc(-c2cccc(NC(=O)c3cccc(C(=O)OCCOC)c3)c2)c2cc(OC)c(OC)cc2n1 [Example 21, N-[3-(6,7-dimethoxy-2-methylaminoquinazolin-4-yl)phenyl]isophthalamic acid 2-methoxyethyl ester]
Induction Ability compared to positive control (%) CYP1A1 ([1]; 1 μM): 0.0% | Induction Ability compared to positive control (%) CYP1A1 ([1]; 3 μM): 0.0% | Induction Ability compared to positive control (%) CYP1A1 ([1]; 10 μM): 0.1% | Induction Ability compared to positive control (%) CYP3A4 ([2]; test compound 1 μM): −1.2% | Induction Ability compared to positive control (%) CYP3A4 ([2]; test compound 3 μM): −1.6% | Induction Ability compared to positive control (%) CYP3A4 ([2]; test compound 10 μM): −2.0% | Induction Ability compared to positive control (%) CYP1A2 ([3]; 1 μM): 0.6% | Induction Ability compared to positive control (%) CYP1A2 ([3]; 3 μM): −0.3% | Induction Ability compared to positive control (%) CYP1A2 ([3]; 10 μM): 0.4%

CNc1nc(-c2cccc(NC(=O)c3ccccc3)c2)c2cc(OC)c(OC)cc2n1 [Comparative example, 4-(3-benzoylaminophenyl)-6,7-dimethoxy-2-methylaminoquinalozine, reference compound]
Induction Ability compared to positive control (%) CYP1A1 ([1]; 1 μM): 2.1% | Induction Ability compared to positive control (%) CYP1A1 ([1]; 3 μM): 18.5% | Induction Ability compared to positive control (%) CYP1A1 ([1]; 10 μM): 51.9% | Induction Ability compared to positive control (%) CYP3A4 ([2]; test compound 1 μM): 1.6% | Induction Ability compared to positive control (%) CYP3A4 ([2]; test compound 3 μM): 10.8% | Induction Ability compared to positive control (%) CYP3A4 ([2]; test compound 10 μM): 17.0% | Induction Ability compared to positive control (%) CYP1A2 ([3]; 1 μM): 7.2% | Induction Ability compared to positive control (%) CYP1A2 ([3]; 3 μM): 34.3% | Induction Ability compared to positive control (%) CYP1A2 ([3]; 10 μM): 35.0% | induction potency on CYPs [4]: induction potency on CYPs was observed

CNC(=O)c1ccc(C(=O)Nc2cccc(-c3nc(NC)nc4cc(OC)c(OC)cc34)c2)cc1 [Example 5, N-[3-(6,7-dimethoxy-2-methylaminoquinazolin-4-yl)phenyl]-N′-methylterephthalamide]
Induction Ability compared to positive control (%) CYP1A1 ([1]; 1 μM): 0.0% | Induction Ability compared to positive control (%) CYP1A1 ([1]; 3 μM): 0.0% | Induction Ability compared to positive control (%) CYP1A1 ([1]; 10 μM): 0.0% | Induction Ability compared to positive control (%) CYP3A4 ([2]; test compound 1 μM): −6.9% | Induction Ability compared to positive control (%) CYP3A4 ([2]; test compound 3 μM): −6.2% | Induction Ability compared to positive control (%) CYP3A4 ([2]; test compound 10 μM): −2.0% | Induction Ability compared to positive control (%) CYP1A2 ([3]; 1 μM): −2.0% | Induction Ability compared to positive control (%) CYP1A2 ([3]; 3 μM): −1.3% | Induction Ability compared to positive control (%) CYP1A2 ([3]; 10 μM): 0.5%

CNC(=O)c1cccc(C(=O)Nc2cccc(-c3nc(NC)nc4cc(OC)c(OC)cc34)c2)c1 [Example 16, N-[3-(6,7-dimethoxy-2-methylaminoquinazolin-4-yl)phenyl]-N′-methylisophthalamide]
Induction Ability compared to positive control (%) CYP1A1 ([1]; 1 μM): 0.0% | Induction Ability compared to positive control (%) CYP1A1 ([1]; 3 μM): 0.3% | Induction Ability compared to positive control (%) CYP1A1 ([1]; 10 μM): 1.0% | Induction Ability compared to positive control (%) CYP3A4 ([2]; test compound 1 μM): −0.7% | Induction Ability compared to positive control (%) CYP3A4 ([2]; test compound 3 μM): −0.3% | Induction Ability compared to positive control (%) CYP3A4 ([2]; test compound 10 μM): 2.7% | Induction Ability compared to positive control (%) CYP1A2 ([3]; 1 μM): 0.2% | Induction Ability compared to positive control (%) CYP1A2 ([3]; 3 μM): 3.9% | Induction Ability compared to positive control (%) CYP1A2 ([3]; 10 μM): 1.2%

CNc1nc(-c2cccc(NC(=O)c3ccc(C(=O)OCCOC)cc3)c2)c2cc(OC)c(OC)cc2n1 [Example 20, N-[3-(6,7-dimethoxy-2-methylaminoquinazolin-4-yl)phenyl]terephthalamic acid 2-methoxyethyl ester]
Induction Ability compared to positive control (%) CYP1A1 ([1]; 1 μM): 0.1% | Induction Ability compared to positive control (%) CYP1A1 ([1]; 3 μM): 0.1% | Induction Ability compared to positive control (%) CYP1A1 ([1]; 10 μM): 0.8% | Induction Ability compared to positive control (%) CYP3A4 ([2]; test compound 1 μM): −2.0% | Induction Ability compared to positive control (%) CYP3A4 ([2]; test compound 3 μM): −2.1% | Induction Ability compared to positive control (%) CYP3A4 ([2]; test compound 10 μM): −2.2% | Induction Ability compared to positive control (%) CYP1A2 ([3]; 1 μM): −1.7% | Induction Ability compared to positive control (%) CYP1A2 ([3]; 3 μM): −1.6% | Induction Ability compared to positive control (%) CYP1A2 ([3]; 10 μM): −1.2%

CCCOC(=O)c1cccc(C(=O)Nc2cccc(-c3nc(NC)nc4cc(OC)c(OC)cc34)c2)c1 [Example 14, propyl N-[3-(6,7-dimethoxy-2-methylaminoquinazolin-4-yl)phenyl]isophthalic acid]
Induction Ability compared to positive control (%) CYP1A1 ([1]; 1 μM): 0.2% | Induction Ability compared to positive control (%) CYP1A1 ([1]; 3 μM): 0.3% | Induction Ability compared to positive control (%) CYP1A1 ([1]; 10 μM): 0.7% | Induction Ability compared to positive control (%) CYP3A4 ([2]; test compound 1 μM): 0.7% | Induction Ability compared to positive control (%) CYP3A4 ([2]; test compound 3 μM): −0.1% | Induction Ability compared to positive control (%) CYP3A4 ([2]; test compound 10 μM): −1.5% | Induction Ability compared to positive control (%) CYP1A2 ([3]; 1 μM): 1.2% | Induction Ability compared to positive control (%) CYP1A2 ([3]; 3 μM): 3.0% | Induction Ability compared to positive control (%) CYP1A2 ([3]; 10 μM): 1.8%

CNc1nc(-c2cccc(NC(=O)c3ccc(C(=O)OC(C)C)cc3)c2)c2cc(OC)c(OC)cc2n1 [Example 7, isopropyl N-[3-(6,7-dimethoxy-2-methylaminoquinazolin-4-yl)phenyl]terephthalamic acid]
Induction Ability compared to positive control (%) CYP1A1 ([1]; 1 μM): 0.2% | Induction Ability compared to positive control (%) CYP1A1 ([1]; 3 μM): 1.8% | Induction Ability compared to positive control (%) CYP1A1 ([1]; 10 μM): 5.7% | Induction Ability compared to positive control (%) CYP3A4 ([2]; test compound 1 μM): −6.6% | Induction Ability compared to positive control (%) CYP3A4 ([2]; test compound 3 μM): −9.8% | Induction Ability compared to positive control (%) CYP3A4 ([2]; test compound 10 μM): −11.9% | Induction Ability compared to positive control (%) CYP1A2 ([3]; 1 μM): 0.5% | Induction Ability compared to positive control (%) CYP1A2 ([3]; 3 μM): 1.5% | Induction Ability compared to positive control (%) CYP1A2 ([3]; 10 μM): 3.1%

CCOC(=O)c1ccc(C(=O)Nc2cccc(-c3nc(NC)nc4cc(OC)c(OC)cc34)c2)cc1 [Example 4, ethyl N-[3-(6,7-dimethoxy-2-methylaminoquinazolin-4-yl)phenyl]terephthalamic acid]
Induction Ability compared to positive control (%) CYP1A1 ([1]; 1 μM): 0.1% | Induction Ability compared to positive control (%) CYP1A1 ([1]; 3 μM): 0.4% | Induction Ability compared to positive control (%) CYP1A1 ([1]; 10 μM): 1.5% | Induction Ability compared to positive control (%) CYP3A4 ([2]; test compound 1 μM): −5.6% | Induction Ability compared to positive control (%) CYP3A4 ([2]; test compound 3 μM): −6.1% | Induction Ability compared to positive control (%) CYP3A4 ([2]; test compound 10 μM): 0.1% | Induction Ability compared to positive control (%) CYP1A2 ([3]; 1 μM): −1.1% | Induction Ability compared to positive control (%) CYP1A2 ([3]; 3 μM): 0.6% | Induction Ability compared to positive control (%) CYP1A2 ([3]; 10 μM): 6.1%
